In patent US20050267016A1, “CD-10 activated prodrug compounds” (priority 2001, published 2005):
Several values for one entry are separate records, joined by “and”; a condition that tells them apart may be missing. Equal entries are not always repeated. Where two headings read alike, the source gives them in different places.

Columns and labels:
[1] = tested on: prostate carcinoma LNCaP tumors; settings: for mean tumor weight of all mice when terminated: calculated, not shown; for Cancer Endpt.: tumor 1.5 g
Description: The mice were weighed and tumors were measured (by caliper) at least once a week prior to start of dosing (Day 0), then twice a week during the study. Immediately before the start of dosing (Study Day −2 to Day 0), mice were randomized to various groups based on the weight of the tumors. […] Mice were euthanized after the tumors reached a cutoff weight of 1.5 g (cancer endpoint), or when mice suffered over 25% weight loss (toxic endpoint). Studies were terminated at Day 60.

[2] = tested on: HT-29 (colon carcinoma) cells; experiment: cells; format: cell-based, human; settings: 48 hours total incubation, read-out: IC50 HT29
Description: (§1) Adherent cells, LNCaP (prostate carcinoma), HT-29 (colon carcinoma) and PC-3 (prostate carcinoma), were cultured in DMEM media containing 10% heat inactivated fetal calf serum (FCS). On the day of the study the cells were detached from the plate with a trypsin solution. The collected cells were washed and resuspended at a concentration of 0.25×10^6 cells/ml in DMEM containing 10% FCS. 100 μl of cell suspension were added to 96 well plates and the plates were incubated for 3 hours to allow the cells to adhere. […] The plates were then incubated for 24 hours, pulsed with 10 μl of a 100 μCi/ml ^3H-thymidine and incubated for an additional 24 hours (total incubation time 48 hours). The plates were harvested using a 96 well Harvester (Packard Instruments) and counted on a Packard Top Count Counter. Four parameter logistic curves were fitted to the ^3H-thymidine incorporation as a function of drug molarity using Prism software to determine IC50 values.

[3] = tested on: LNCaP xenografts; experiment: LNCaP xenograft in SCID mice, Q6DX2, equitoxic comparison (Example 27); format: in vivo, C.B-17.SCID mice
Description: All compounds except Suc-βAla-Leu-Ala-Leu-Dox (three levels) were dosed at two levels with the goal to get a dose response for all compounds.
Knowing that the LNCaP tumor bearing nude mice have weight loss, we chose very conservative dose levels for each compound estimated to be well-tolerated equitoxic doses based on earlier studies and SD-MTD results. The high dose level for repeat dosing is usually 80% of their SD-MTD, and the low dose level is 80% of the high dose level. Accordingly, groups of ten male CD17.SCID mice, subcutaneously injected with 2.5 million LNCaP cells, were treated intravenously with the compounds at the levels described in Table 22 at six day intervals for a total of two identical doses (Q6DX2).
LNCaP tumors grew well in SCID mice, but the SCID mice with LNCaP tumor xenografts experienced severe weight loss, as 80% of control mice had more than 25% of weight loss by the end of the study. Nevertheless, the efficacy of different treatments at approximately equitoxic levels were compared based on the time it took for 50% of mice to reach toxic weight loss and the total numbers of mice with toxic weight loss at the end of study.

[4] = tested on: Namalwa cells (CD10pos); experiment: cells; format: cell-based; settings: for IC50: 24 hours; for Ratio Ball-1:Namalwa: ratio of IC50
Description: (§2) Suspension cells, BALL-1, Ramos and Namalwa cells were cultured in RPMI media containing 10% heat inactivated fetal calf serum (FCS). On the day of the study, the cells were collected, washed and resuspended at a concentration of 0.5×10^6 cells/ml in RPMI containing 10% FCS. 100 µl of cell suspension was added to 96 well plates. […] Finally 10 μl of a 100 μCi/ml ^3H-thymidine was added per well and the plates were incubated for 24 hours. The plates were harvested using a 96 well Harvester (Packard Instruments) and counted on a Packard Top Count counter. Four parameter logistic curves were fitted to the ^3H-thymidine incorporation as a function of drug molarity using Prism software to determine IC50 values.

[5] = tested on: Ramos cells (CD10pos); experiment: cells; settings: for Ratio Ball-1:Ramos: ratio of IC50
Description: as §2
(§3) The effect of two known inhibitors of CD10 on prodrug activity in Ramos, LNCaP and Ball-1 cells was evaluated. The IC50 of Suc-βAla-Ile-Ala-Leu-Dox was determined in the presence of increasing concentration of the CD10 inhibitors, phosphoramidon and thiorphan.

[6] = tested on: BALL-1 cells (CD10neg); experiment: cells
Description: as §2, §3

[7] = tested on: PC-3 (prostate carcinoma) cells; experiment: cells; format: cell-based, human
Description: as §1
as §1, with “carcinoma), PC-3 (prostate” for “carcinoma), HT-29 (colon”, “and 22 RV1” for “and PC-3”, “with 1:0” for “with 10”

[8] = tested on: CD10 transfected CHO cells, Clone #8; experiment: 3H thymidine proliferation assay, CD10 transfected CHO Clone #8
Description: The fully assembled coding region was sub-cloned into a mammalian expression vector, downstream of the hCMV-MIE promoter. DNA sequence analysis confirmed sequence identity with the coding sequence of human CD10 (Genbank accession number Y00811). The expression plasmid was linearized and stably transfected into CHO—S cells. CD10 expressing transfectant clones were selected under 500 ug/mL of hygromycin and screened by flow cytometry for cell-surface CD10 expression using a commercially available anti-CD10-FITC antibody.

[9] = Single dose Maximum Tolerated Dose (MTD) study, 28 days; format: in vivo, mice; settings: mouse, in vivo; intravenous bolus, normal mice, 28 days
Description: (§4) The mice were observed daily for 28 days and body weights measured twice weekly.
as §4
(§5) In the single dose Maximum Tolerated Dose (MTD) studies, groups of normal mice were administered intravenous bolus doses of the prodrug. The mice were observed daily for 28 days and body weights measured twice weekly. The MTD was estimated to be equal to the highest dose that produced no death in mice after 28 days.

[10] = tested on: normal mice; experiment: as above; format: in vivo; settings: for single-dose MTD, fold higher than doxorubicin alone: 28 days
Description: as §4, §4, §5

[11] = tested on: LNCaP (prostate carcinoma) cells
Description: as §1
as §1, with “carcinoma), PC-3 (prostate” for “carcinoma), HT-29 (colon”, “and 22 RV1” for “and PC-3”, “with 1:0” for “with 10”
as §3

Question: Which “mean tumor weight of all mice when terminated” value ([1]; 5 mg/kg Q7DX5) does the source give for `COc1cccc2c1C(=O)c1c(O)c3c(c(O)c1C2=O)C[C@@](O)(C(=O)CO)C[C@@H]3O[C@H]1C[C@H](N)[C@H](O)[C@H](C)O1` [Doxorubicin, reference compound] here?
Answer: The value was 967 mg.

Question: And the “Cancer Endpt.” value ([1]; 5 mg/kg Q7DX5)?
Answer: The value was 0.

Question: And the “% Tumor Growth Inhibition D14” value ([1]; 5 mg/kg i.v. Q7DX5)?
Answer: Its value is “D14: 32 ± 16%”.

Question: What about the “Survivor (day 60)” value ([1]; 5 mg/kg i.v. Q7DX5) of the same molecule?
Answer: The value was 1.

Question: What about the “Tumor Weight D14” value ([1]; 5 mg/kg i.v. Q7DX5) of the same molecule?
Answer: The value was “D14: 567 ± 77”.

Question: What about the IC50 ([2]; Homo sapiens, HT-29) of the same molecule?
Answer: Its IC50 is 0.052 µM.

Question: And the “% Weight Loss at the end of study” value ([3]; 3 mg/kg Q6DX2)?
Answer: The value was 60%.

Question: What about the “Growth Inhibition” value ([3]; 3 mg/kg Q6DX2) of the same molecule?
Answer: The value was 29%.

Question: What about the “Time: 50% Weight Loss” value ([3]; 3 mg/kg Q6DX2) of the same molecule?
Answer: The value was 36 days.

Question: And the “Growth Inhibition” value ([3]; 4 mg/kg Q6DX2)?
Answer: The value was 29%.

Question: What about the “% Weight Loss at the end of study” value ([3]; 4 mg/kg Q6DX2, mice with toxic weight loss) of the same molecule?
Answer: Its value is 80%.

Question: What about the “Time: 50% Weight Loss” value ([3]; 4 mg/kg Q6DX2, time for 50% of mice to reach toxic weight loss) of the same molecule?
Answer: Its value is 33 days.

Question: What about the IC50 [4] of the same molecule?
Answer: The IC50 was 0.01 µM.

Question: And the IC50 ([5]; Homo sapiens, Ramos, 24 h, read-out: IC50 Ramos)?
Answer: Its IC50 is 10 nM.

Question: And the IC50 ([5]; Homo sapiens, Ramos, read-out: IC50 Ramos)?
Answer: Its IC50 is 10 nM.

Question: What about the IC50 ([6]; Homo sapiens, BALL-1, 24 h, read-out: IC50 Ball-1) of the same molecule?
Answer: Its IC50 is 0.02 µM.

Question: What about the IC50 ([7]; Homo sapiens, PC-3, 48 hours total incubation, read-out: IC50 PC-3) of the same molecule?
Answer: The IC50 was 75 nM.

Question: And the IC50 ([7]; Homo sapiens, PC-3, Table 6, 48 hours, read-out: IC50 PC-3 CD10−PSA−)?
Answer: Its IC50 is 40 nM.

Question: And the IC50 ([8]; Cricetulus griseus, CHO, read-out: IC50 Clone #8)?
Answer: The IC50 was 570 nM.

Question: Which results are given for `CC[C@H](C)[C@H](NC(=O)CCNC(=O)CCC(=O)O)C(=O)N[C@@H](C)C(=O)N[C@@H](CC(C)C)C(=O)N[C@H]1C[C@H](O[C@H]2C[C@](O)(C(=O)CO)Cc3c(O)c4c(c(O)c32)C(=O)c2c(OC)cccc2C4=O)O[C@@H](C)[C@H]1O` [Suc-βAla-Ile-Ala-Leu-Dox]?
Answer: % Weight Loss at the end of study ([3]; 50 mg/kg Q6DX2): 80%; Time: 50% Weight Loss ([3]; 50 mg/kg Q6DX2): 33 days; Time: 50% Weight Loss ([3]; 62 mg/kg Q6DX2): 12 days; Time: 100% Weight Loss ([3]; 62 mg/kg Q6DX2): 33 days; Ratio Ball-1:Namalwa [4]: 172; IC50 ([5]; 24 h): 420 nM; Ratio Ball-1:Ramos [5]: 120; IC50 ([6]; 24 h): 50 µM; MTD [9]: 40 mg/kg; animals euthanized due to treatment-related toxicity ([10]; 100 mg/kg, Day 21, groups of five): two; animals euthanized due to treatment-related toxicity ([10]; 125 mg/kg, Day 14, groups of five): four; single-dose MTD, fold higher than doxorubicin alone [10]: approximately 10 fold; IC50 ([11]; 48 h): 150 nM; Ratio Suc-β-Ala-Ile-Ala-Leu/Dox ([11]; LnCap, ratio of IC50): 3; Ratio PC-3:LNCaP ([11]; ratio of IC50): 300; IC50 difference to Dox ([8]; CD10 transfected CHO cells): ~16 fold; Ratio Suc-β-Ala-Ile-Ala-Leu/Dox ([8]; Clone #8, ratio of IC50): 15

Question: Which results are given for `COc1cccc2c1C(=O)c1c(O)c3c(c(O)c1C2=O)C[C@@](O)(C(=O)CO)C[C@@H]3O[C@H]1C[C@H](NC(=O)[C@H](CC(C)C)NC(=O)[C@H](C)NC(=O)[C@H](CC(C)C)NC(=O)CCNC(=O)CCC(=O)O)[C@H](O)[C@H](C)O1` [Suc-βAla-Leu-Ala-Leu-Dox]?
Answer: mean tumor weight of all mice when terminated ([1]; 59 mg/kg Q7DX5): 232 mg; Toxic Endpt. ([1]; 59 mg/kg Q7DX5, over 25% weight loss): 7 of 7 and 7; Cancer Endpt. ([1]; 59 mg/kg Q7DX5): 0; % Tumor Growth Inhibition D14 ([1]; 59 mg/kg i.v. Q7DX5): D14: 53 ± 15 %; % Tumor Growth Inhibition D21 ([1]; 59 mg/kg i.v. Q7DX5): D21: 66 ± 15 %; Survivor (day 60) ([1]; 59 mg/kg i.v. Q7DX5): 0; Tumor Weight D14 ([1]; 59 mg/kg i.v. Q7DX5): D14: 391 ± 70; Tumor Weight D21 ([1]; 59 mg/kg i.v. Q7DX5): D21: 318 ± 67; Time: 50% Weight Loss ([3]; 40 mg/kg Q6DX2): 33 days; Time: 100% Weight Loss ([3]; 40 mg/kg Q6DX2): 54 days; Time: 50% Weight Loss ([3]; 50 mg/kg Q6DX2): 19 days; Time: 100% Weight Loss ([3]; 50 mg/kg Q6DX2): 40 days; Time: 50% Weight Loss ([3]; 62 mg/kg Q6DX2): 15 days; Time: 100% Weight Loss ([3]; 62 mg/kg Q6DX2): 33 days; Ratio Ball-1:Namalwa [4]: 3; IC50 [5]: 840 nM; IC50 ([5]; 24 h): 6930 nM; Ratio Ball-1:Ramos [5]: 2; IC50 ([6]; 24 h): 17 µM; IC50 [11]: 510 nM; IC50 ([11]; 48 h): 870 nM; shift of IC50 ([11]; LNCaP cells treated with 100 nM of phosphoramidon (data not shown)): 7 fold; Ratio PC-3:LNCaP ([11]; ratio of IC50): 32

Question: For `CC[C@H](C)[C@H](NC(=O)CCC(=O)O)C(=O)N[C@@H](C)C(=O)N[C@@H](CC(C)C)C(=O)N[C@H]1C[C@H](O[C@H]2C[C@](O)(C(=O)CO)Cc3c(O)c4c(c(O)c32)C(=O)c2c(OC)cccc2C4=O)O[C@@H](C)[C@H]1O` [Suc-Ile-Ala-Leu-Dox], which IC50 [2] is on record?
Answer: Its IC50 is 47 µM.

Question: What about the “Time: 50% Weight Loss” value ([3]; 75 mg/kg Q6DX2) of the same molecule?
Answer: The value was 26 days.

Question: What about the “Time: 100% Weight Loss” value ([3]; 75 mg/kg Q6DX2) of the same molecule?
Answer: The value was 43 days.

Question: And the “Time: 50% Weight Loss” value ([3]; 94 mg/kg Q6DX2)?
Answer: Its value is 19 days.

Question: And the “Time: 100% Weight Loss” value ([3]; 94 mg/kg Q6DX2)?
Answer: The value was 36 days.

Question: And the IC50 [4]?
Answer: Its IC50 is 6.47 µM.

Question: What about the “Ratio Ball-1:Namalwa” value [4] of the same molecule?
Answer: The value was 4.

Question: What about the “Ratio Ball-1:Ramos” value [5] of the same molecule?
Answer: Its value is 4.

Question: What about the IC50 ([5]; read-out: IC50 Ramos, 24 hours) of the same molecule?
Answer: The IC50 was 6430 nM.

Question: What about the IC50 ([6]; read-out: IC50 Ball-1, 24 hours) of the same molecule?
Answer: Its IC50 is 26 µM.

Question: And the IC50 ([7]; 48 hours total incubation, read-out: IC50 PC-3)?
Answer: The IC50 was 88000 nM.

Question: What about the MTD [9] of the same molecule?
Answer: The MTD was no less than 66 mg/kg.

Question: And the “single-dose MTD, fold higher than doxorubicin alone” value [10]?
Answer: Its value is “at least 16 fold”.

Question: And the “28-day single-dose Maximum Tolerated Dose (MTD)” value ([10]; intravenous bolus, normal mice)?
Answer: Its value is greater than 117 mg/kg.

Question: And the “Ratio PC-3:LNCaP” value ([11]; ratio of IC50)?
Answer: The value was 83.

Question: And the IC50 ([11]; read-out: IC50 LNCAP, 48 hours total incubation)?
Answer: The IC50 was 1100 nM.
